Values of other authors as cited in US20170312269A1, “COMPOSITIONS AND METHODS FOR REDUCING FOOD CRAVINGS” (OREXIGEN THERAPEUTICS, INC., priority 2005, published 2017).

Settings: in vivo; cited from earlier work

For `CNCCC(Oc1ccc(C(F)(F)F)cc1)c1ccccc1` (stereo not shown) [fluoxetine], the physiological half life is listed as “about 9 hours”.
